{"source": "patent US12344583B2", "about": "“Solid psilocin salts” (LOBE SCIENCES LTD., priority 2022, dated 2025)", "key": {"[1]": {"experiment": "Stability studies on psilocin mucate capsule (appearance, HPLC assay and impurities, TM-022-0392)", "assay_type": "physicochemical", "protocol": "Additional stability studies were performed on the solid psilocin form psilocin mucate (also known as psilocin mucic acid salt or conjugate or psilocin galactaric acid salt or conjugate) capsule.\nAppearance was evaluated by viewing of the sample on a watchglass over a black and white background.\nAssay conditions for Test/Method TM-022-0392 assessing stability and impurities were as follows: • Mobile phase: MPA: 945 mL water, 5 mL H3PO4, pH to 5.7 with • NaOH; MPB: Acetonitrile • Diluent: 80:20 Water: MeOH • Standard: 0.4 mg/mL Psilocin Mucic RS in Diluent • Sample: 0.4 mg/mL Psilocin Mucic API in Diluent HPLC Conditions are depicted in Table 3.\nCalculations were against a bracketing external standard.\nIdentity of psilocin mucate was verified by ultraviolet (UV) assessment, wherein the UV spectrum of the main peak in the standard matched the UV spectrum of the main peak in the sample and by retention time wherein the retention time ratio was 0.98-1.02."}, "healthy subjects": {"system": "healthy subjects", "experiment": "Phase one open-label single-dose study of psilocin mucate capsules: MMSE and mood assessment by psychiatrist", "details": "single oral capsule 4.05 mg psilocin mucate (equivalent to 2 mg psilocin)"}}, "note": "“And” between values parts separate entries of the source, which are not always exact repeats. Equal entries are not always repeated. “Also recorded” adds a separate entry of the source.", "data": [{"smiles": "CN(C)CCc1c[nH]c2cccc(O)c12.O=C(O)[C@@H](O)[C@H](O)[C@H](O)[C@@H](O)C(=O)O", "note": "[psilocin mucate]", "values": [{"measurement": "Total Impurities", "setting": "[1]; 7 Months", "value": "<0.05", "unit": "%"}, {"measurement": "Impurities TM-22-0392, individual impurities", "setting": "[1]; 7 Months, all impurities, area percent", "value": "All <0.05%"}, {"measurement": "Assay TM-22-0392 (% Label Claim)", "setting": "[1]; 7 Months, specification 90.0-110.0%", "value": "101,7%"}, {"measurement": "Total Impurities", "setting": "[1]; Initial", "value": 0.08, "unit": "%"}, {"measurement": "Impurities TM-22-0392, individual impurities", "setting": "[1]; Initial, impurity at RRT I.12, area percent", "value": "RRT I.12/0.08%"}, {"measurement": "FEELING STATUS", "setting": "healthy subjects; one statement per subject", "value": "Less anxious, better mood, increase their appetite; also recorded: Feel little beet happier, better energy; also recorded: Feel calm, less thoughts, happier mood; also recorded: Euphoric, better mood, it helps with life stress; also recorded: Euphories, better mood, sleepy, feel time is; also recorded: Sleepy, better thoughts, less worried in general; also recorded: Did not feel change in mood but feeling cold; also recorded: More relaxed, want to drink sweet tea, better; also recorded: Better mood, feels hyper sexual"}, {"measurement": "MMSE", "setting": "healthy subjects; one value per subject, below 25 expected for a hallucinogenic substance", "value": "29 (2×) and 30 (3×) and 28 (3×) and 27 (2×)"}]}]}
